Data: ChEMBL document CHEMBL1152177, “Imidazole pyrimidine amides as potent, orally bioavailable cyclin-dependent kinase inhibitors” (Bioorg Med Chem Lett, 2008)

Columns and labels:
[1] = AUC in nude mouse at 2.0 umol/kg, iv; assay type: ADME, organism-based; settings: plasma
[2] = Bioavailability in Han-Wistar rat at 20 umol/kg, po; assay type: ADME, organism-based; settings: in vivo
[3] = Half life in Han-Wistar rat at 1.0 umol/kg, iv; assay type: ADME, organism-based; settings: in vivo
[4] = AUC in Han-Wistar rat at 5 umol/kg, po; assay type: ADME, organism-based; settings: plasma
[5] = Volume of distribution at steady state in Han-Wistar rat at 1.0 umol/kg, iv; assay type: ADME, organism-based; settings: in vivo, read-out: Vdss
[6] = AUC in Han-Wistar rat at 1.0 umol/kg, iv; assay type: ADME, organism-based; settings: plasma
[7] = Volume of distribution at steady state in nude mouse at 2.0 umol/kg, iv; assay type: ADME, organism-based; settings: in vivo, read-out: Vdss
[8] = Bioavailability in Han-Wistar rat at 5 umol/kg, po; assay type: ADME, organism-based; settings: in vivo
[9] = AUC in Han-Wistar rat at 20 umol/kg, po; assay type: ADME, organism-based; settings: plasma
[10] = Clearance in nude mouse at 2.0 umol/kg, iv; assay type: ADME, organism-based; settings: in vivo
[11] = Distribution coefficient, log D of the compound; assay type: physicochemical; settings: octanol/water
[12] = Clearance in Han-Wistar rat at 1.0 umol/kg, iv; assay type: ADME, organism-based; settings: in vivo
[13] = Half life in nude mouse at 2.0 umol/kg, iv; assay type: ADME, organism-based; settings: in vivo

AUC [1]: 1.8 µM·h
bioavailability [2]: 47%
half-life [3]: 5.8 h
AUC [4]: 1.5 µM·h
Vd [5]: 1.7 L/kg
AUC [6]: 1.4 µM·h
Vd [7]: 9.5 L/kg
bioavailability [8]: 21%
AUC [9]: 13.7 µM·h
clearance [10]: 18.5 mL/min/kg
logD [11]: 3
clearance [12]: 11.9 mL/min/kg
half-life [13]: 16.7 h
Structure (SMILES): CNC(=O)c1ccc(Nc2nccc(-c3cnc(C)n3C(C)C)n2)cc1F
